Data taken from patent publication US20160374944A1, “COMPOSITIONS AND METHODS FOR TREATING AND PREVENTING CANCER BY TARGETING AND INHIBITING CANCER STEM CELLS” (priority 2011, published 2016).

Legend:
Pancreatic CSCs [1] = experiment: cell viability, trypan blue, Vi-CELL analyzer; format: cell-based, human
Description: Pancreatic CSCs were treated with resveratrol (0-20 μM), curcumin (0-20 μM), honokiol (0-20 μM) and diallyl trisulphide (0-20 μM) for 3 days, and cell viability was measured by staining with trypan blue using Vi-CELL analyzer (Beckman Counter).
Pancreatic CSCs were treated with sulforaphane (0-20 μM), rottlerin (0-2 μM), EGCG (0-60 μM) and embelin (0-5 μM) for 3 days, and cell viability was measured by staining with trypan blue using Vi-CELL analyzer (Beckman Counter).
(§1) (A) Pancreatic CSCs were treated with SAHA (3 and 5 μM) and 5-Aza-dc (2 and 4 μM) and cell viability was measured at 48 h by staining with trypan blue using Vi-CELL analyzer (Beckman Counter). (B) Pancreatic CSCs were untreated (a) or treated with SAHA (b) or 5-Aza-dC (c) for 48 h, and apoptosis was measured by staining with annexin-PI using Accuri Flow Cytometer. (C) Caspase-3/7 activity was measured in pancreatic CSCs treated with SAHA (0.5 and 2 μM) or 5-Aza-dC (1 and 3 μM) for 25 h.
Pancreatic CSCs were treated with resveratrol (0-20 μM), curcumin (0-20 μM), honokiol (0-20 μM), and diallyl trisulphide (0-20 μM) for 3 days and cell viability was measured by staining with trypan blue using Vi-CELL analyzer. The results of those studies are illustrated in FIG. 27.
Pancreatic CSCs were treated with sulforaphane (0-20 μM), rottlerin (0-2 μM), EGCG (0-60 μM), and embelin (0-5 μM) for 3 days and cell viability was measured by staining with trypan blue using Vi-CELL analyzer. The results of those studies are illustrated in FIG. 28.
Pancreatic CSCs were treated with SAHA […] Vorinostat (3 and 5 μM) and 5-Aza-2′-deoxycytidine (5-Aza-dC, 2 and 4 μM) and cell viability was measured at 48 hours by staining with trypan blue using Vi-CELL analyzer. The results of those studies are illustrated in FIG. 31A.

Brain CSCs [2] = experiment: cell viability, trypan blue, Vi-CELL analyzer; format: cell-based; conditions: 3 days
Description: Brain CSCs were treated with resveratrol (0-20 μM), curcumin (0-20 μM), honokiol (0-20 μM) and diallyl trisulphide (0-10 μM) for 3 days, and cell viability was measured by staining with trypan blue using Vi-CELL analyzer (Beckman Counter).
Brain CSCs were treated with sulforaphane (0-20 μM), rottlerin (0-1 μM), EGCG (0-40 μM) and embelin (0-5 μM) for 48 h, and cell viability was measured by staining with trypan blue using Vi-CELL analyzer (Beckman Counter).
Brain CSCs were treated with resveratrol (0-20 μM), curcumin (0-20 μM) honokiol (0-20 μM), and diallyl trisulphide (0-10 μM) for 3 days and cell viability was measured by staining with trypan blue using Vi-CELL analyzer. The results of those studies are illustrated in FIG. 23.
Brain CSCs were treated with sulforaphane (0-20 μM), rottlerin (0-1 μM), EGCG (0-40 μM), and embelin (0-5 μM) for 48 hours and cell viability was measured by staining with trypan blue using Vi-CELL analyzer. The results of those studies are illustrated in FIG. 24.

Prostate CSCs [3] = experiment: cell viability, trypan blue, Vi-CELL analyzer; format: cell-based, human; conditions: 3 days
Description: Prostate CSCs were treated with resveratrol (0-20 μM), curcumin (0-20 μM), honokiol (0-20 μM) and diallyl trisulphide (0-10 μM) for 3 days, and cell viability was measured by staining with trypan blue using Vi-CELL analyzer (Beckman Counter).
Prostate CSCs were treated with sulforaphane (0-20 μM), rottlerin (0-5 μM), EGCG (0-40 μM) and embelin (0-1 μM) for 3 days, and cell viability was measured by staining with trypan blue using Vi-CELL analyzer (Beckman Counter).
Prostate CSCs were treated with resveratrol (0-20 μM), curcumin (0-20 μM), honokiol (0-20 μM), and diallyl trisulphide (0-10 μM) for 3 days and cell viability was measured by staining with trypan blue using Vi-CELL analyzer. The results of those studies are illustrated in FIG. 25.
Prostate CSCs were treated with sulforaphane (0-20 μM), rottlerin (0-5 μM), EGCG (0-40 μM), and embelin (0-1 μM) for 3 days and cell viability was measured by staining with trypan blue using Vi-CELL analyzer. The results of those studies are illustrated in FIG. 26.

Breast CSCs = experiment: cell viability by XTT assay; format: cell-based; conditions: 3 days
Description: Breast CSCs were seeded in 96-well plate and treated with sulforaphane, diallyl trisulphide, resveratrol and curcumin for 3 days. At the end of incubation period, CSCs were harvested and cell viability was measured by XTT assay.
Breast CSCs were seeded in 96-well plate and treated with rottlerin, EGCG, embelin, and honokiol for 3 days. At the end of incubation period, breast CSCs were harvested and cell viability was measured by XTT assay.
(A-D) Breast CSCs were treated with PITC (0-20 μM), BSC, (0-20 μM), sulforaphane (0-20 μM) and honokiol (0-10 μM) for 3 days, and cell viability was measured by XTT assay.
Breast CSCs were treated with rottlerin (0-1 μM) for 3 days, and cell viability was measured by XTT assay.
Breast CSCs were seeded in 96-well plate and treated with sulforaphane, diallyl trisulphide, resveratrol, and curcumin for 3 days and cell viability was measured by XTT assay. The results of those studies are illustrated in FIG. 29.
Breast CSCs were seeded in 96-well plate and treated with Rottlerin, EGCG, embelin, and honokiol for 3 days and cell viability was measured by XTT assay. The results of those studies are illustrated in FIG. 30.

pancreatic cancer = conditions: background statement; cited from earlier work
Pancreatic CSCs [4] = experiment: cell viability by XTT assay; format: cell-based, human; conditions: 3 days; BSC 0-20 μM, honokiol 0-10 μM
Description: (§2) (A-B) Pancreatic CSCs were treated with BSC (0-20 μM) and honokiol (0-10 μM); (C-D) Prostate CSCs were treated with PITC (0-20 μM) and BSC (0-20 μM) for 3 days. Cell viability was measured by XTT assay.

Brain CSCs [5] = experiment: cell viability by XTT assay; format: cell-based; conditions: 3 days; 0-20 μM
Description: (A-B) Brain CSCs were treated with sulforaphane (0-20 μM), and honokiol (0-20 μM) for 3 days, and cell viability was measured by XTT assay.

Pancreatic CSCs [6] = experiment: apoptosis; format: cell-based, human; conditions: 48 h, annexin-PI, flow cytometer
Description: (A and B) Induction of apoptosis and activation of caspase-3/-7. Pancreatic CSCs were treated with rottlerin (0-2 μM) for 48 h, and apoptosis and caspase-3/-7 activity were measured by […] and colorometric assay, respectively. […] (C) Pancreatic CSCs were treated with rottlerin (0-1 μM) for 48 h, and the expression of Bcl-2, XIAP and Survivin was measured by qRT-PCR and normalized to GAPDH.
as §1
(A) Regulation of caspase-3/7 activity by EGCG. CSCs were treated with EGCG (0-60 μM) for 24 h, and caspase-3/7 activity was measured as per manufacturer's instructions. […] (B) Regulation of apoptosis by EGCG. CSCs were treated with EGCG (0-60 μM) for 48 h, and apoptosis was measured by TUNEL assay. […] (C) Regulation of apoptosis-related proteins. Pancreatic CSCs were treated with EGCG (0-60 μM) for 36 h. Real time PCR (q-RT-PCR) was performed to examine the expression of Bcl-2, survivin, XIAP, and GAPDH.
FIG. 42A and FIG. 42B show graphs showing quercetin synergizes with EGCG to inhibit self-renewal capacity, invasion, migration, and TCF/LEF and Gli transcriptional activities in pancreatic CSCs. (A) Effects of EGCG and quercetin on spheroid and colony formation. Upper Panel, uercetin synergizes with EGCG to inhibit spheroid's cell viability. CSCs were seeded in suspension and treated with EGCG (0-60 μM) with or without quercetin (20 μM) for 7 days. At the end of incubation period, all the spheroids were collected and resuspended. Cell viability was measured by trypan blue assay. […] Lower panel, uercetin synergizes with EGCG to inhibit colony formation. Pancreatic CSCs were seeded in soft agar and treated with various doses of EGCG (0-60 μM) with or without quercetin (20 μM) and incubated at […] for 21 days. At the end of incubation period, colonies were counted. […] (B) Effects of EGCG and quercetin on invasion and migration. Upper panel, Matrigel invasion assay. CSCs were plated onto the Matrigel-coated membrane in the top chamber of the transwell and treated with EGCG (0-60 μM) with or without quercetin (20 μM) for 48 hrs. Cells invaded to the lower chambered were fixed with methanol, stained with crystal violet and counted. […] Lower panel, Transwell migration assay. Pancreatic CSCs were plated in the top chamber of the transwell and treated with EGCG (0-60 μM) with or without quercetin (20 μM) for 48 hrs. Cells migrated to the lower chambered were fixed with methanol, stained with crystal violet and counted. […] (C) Quercetin synergizes with EGCG to induce apoptosis. CSCs were seeded in suspension and treated with EGCG (0-60 μM) with or without quercetin (20 μM) for 7 days. At the end of incubation period, all the spheroids were collected. Apoptosis was measured by TUNEL assay. […] (D) Effects of EGCG and quercetin on TCF/LEF and Gli transcriptional activities. Pancreatic CSCs were transduced with either lentivirus encoding TCF/LEF responsive GFP and luciferase genes or Gli-responsive GFP and luciferase genes. Transduced CSCs were treated with EGCG (40 μM) with or without quercetin (20 μM) for 48 hrs and the luciferase activity was measured.
Pancreatic CSCs were (a) untreated, (b) treated with SAHA, or (c) treated with 5-Aza-dC for 48 hours and apoptosis was measured by staining with annexin-PI using Accuri Flow Cytometer. The results of those studies are illustrated in FIG. 31B.

Prostate CSCs [7] = experiment: cell viability by XTT assay; format: cell-based, human; conditions: 3 days; PITC 0-20 μM, BSC 0-20 μM
Description: as §2

[8] = 48 h, SAHA 3 and 5 μM, 5-Aza-dc 2 and 4 μM

| Structure (SMILES) | cell viability (Pancreatic CSCs [1]; 3 days) | cell viability (Brain CSCs [2]) | cell viability (Prostate CSCs [3]) | cell viability (Breast CSCs) | other results |
| --- | --- | --- | --- | --- | --- |
| C=CCSSSCC=C [diallyl trisulphide] | inhibit cell viability | inhibit cell viability | inhibit cell viability | inhibit cell viability |  |
| COc1cc(/C=C/C(=O)CC(=O)/C=C/c2ccc(O)c(OC)c2)ccc1O [curcumin] | inhibit cell viability | inhibit cell viability | inhibit cell viability | inhibit cell viability |  |
| Nc1ccn([C@@H]2O[C@H](CO)[C@@H](O)C2(F)F)c(=O)n1 [Gemcitabine] |  |  |  |  | pancreatic cancer patients in whom the drug is effective (pancreatic cancer): 30%; survival of pancreatic cancer patients (pancreatic cancer): less than 5 years |
| C=CCc1ccc(O)c(-c2ccc(O)c(CC=C)c2)c1 [honokiol] | inhibit cell viability | inhibit cell viability | inhibit cell viability | inhibit cell viability | cell viability (Pancreatic CSCs [4]): inhibit cell viability; cell viability (Brain CSCs [5]): inhibit cell viability |
| O=C(CCCCCCC(=O)Nc1ccccc1)NO [SAHA, reference compound] |  |  |  |  | apoptosis (Pancreatic CSCs [6]): promote apoptosis; cell viability (Pancreatic CSCs [1]; [8]): inhibit cell viability |
| S=C=Nc1ccccc1 [PITC, phenyl isothiocyanate] |  |  |  | inhibit cell viability | cell viability (Prostate CSCs [7]): inhibit cell viability |
| N#C[Se]Cc1ccccc1 [BSC, benzyl selenocyanate] |  |  |  | inhibit cell viability | cell viability (Pancreatic CSCs [4]): inhibit cell viability; cell viability (Prostate CSCs [7]): inhibit cell viability |
| Nc1ncn([C@H]2C[C@H](O)[C@@H](CO)O2)c(=O)n1 [5-Aza-dC, 5-Aza-2′-deoxycytidine, reference compound] |  |  |  |  | apoptosis (Pancreatic CSCs [6]): promote apoptosis; cell viability (Pancreatic CSCs [1]; [8]): inhibit cell viability |
| Oc1ccc(C=Cc2cc(O)cc(O)c2)cc1 [resveratrol] | inhibit cell viability | inhibit cell viability | inhibit cell viability | inhibit cell viability |  |
